Experiments:
[1] = test system: EPOR-cyto-Trx and GST-SHP1-SH2; assay: Competition of EPOR-cyto-Trx for GST-SHP1-SH2 binding; details: 4 μM peptide, 15 nM EPOR-cyto-P, 200 nM GST-SHP1-SH2
Experimental: FIG. 10. Competition for GST-SHP1-SH2 or GST-SHP2-SH2 binding to EPOR-cyto-P by a phosphopeptide derived from the sequence surrounding Y401 of the cytoplasmic domain of the EPO receptor. 200 nM GST-SHP1-SH2 or GST-SHP2-SH2, 15 nM EPOR-cyto-P, with and without 4 μM peptide were incubated together. GST-SHP1-SH2 or GST-SHP2-SH2 was immunoprecipitated with Glutathione Sepharose (Pharmacia), and co-precipitating EPOR-cyto-P was visualized with an anti-Trx antibody.
(§1) Bindings were done as immunoprecipitations. Binding concentrations were typically 200 nM GST-SHP2-SH2 or GST-SHP1-SH2 and 15 nM phosphopeptide or cytoplasmic domain fusion in TBST (20 mM Tris, 150 mM NaCl, 0.1% Tween 20, pH 7.4) at 4° C. overnight. After binding either anti-flag mAb, M2, was added (for the phosphopeptide and flag tagged GST-OB-R-cyto) or anti-myc mAb, 9E10, was added (for the myc tagged GST-OB-R-cyto) and the proteins were precipitated with protein G-sepharose. Proteins were then detected on western blots using anti-GST polyclonal antibodies. For the EPOR-cyto-Trx fusion, the protein complexes were precipitated with glutathione-sepharose and the EPOR-cyto-Trx fusion was detected with anti-Trx polyclonal antibodies.
In this competition the complexes were precipitated with glutathione-sepharose and the EPOR-cyto-Trx was detected by western blot using anti-Trx antibodies. […]

GST-SHP1-SH2 = target: T1, GST-SHP1-SH2 (Homo sapiens, UniProt P29350); assay: Binding to GST-SHP1-SH2 by immunoprecipitation and western blot; details: 200 nM GST-SHP1-SH2, 15 nM phosphopeptide or cytoplasmic domain fusion, TBST, 4° C. overnight
T1 construct: Amino acids 2-221 of SHP1 were cloned as a EcoRI/BglII fragment into pGEX-3X; made in house; host or cells: E. coli
T1 sequence (P29350 2-221): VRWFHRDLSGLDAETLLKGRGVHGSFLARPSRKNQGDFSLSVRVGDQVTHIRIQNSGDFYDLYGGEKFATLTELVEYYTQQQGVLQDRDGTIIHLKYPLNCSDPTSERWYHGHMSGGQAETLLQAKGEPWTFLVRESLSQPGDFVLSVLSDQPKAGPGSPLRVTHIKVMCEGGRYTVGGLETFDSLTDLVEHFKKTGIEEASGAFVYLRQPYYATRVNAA
Experimental: The GST-SHP1-SH2 construct consists of the two SH2 domains of SHP1fused downstream of GST. Amino acids 2-221 of SHP1 were cloned as a EcoRI/BglII fragment into pGEX-3X and expressed in E. coli.
as §1

TOBRY986F = target: T2, TOBRY986F (Homo sapiens, UniProt P48357+Q16288, Y986F); assay: Luciferase reporter gene assay, TrkC-OB-R chimeric receptor TOBRY986F in neuroblastoma (NBFL) cells; type: cell-based; details: NT-3 at 20 ng/ml for 36 hours
T2 construct: TrkC (amino acids 1 to 458) to the cytoplasmic domain of OB-R (amino acids 865-1165); expressed in transfected cells; host or cells: NBFL neuroblastoma cells

[2] = target: T3, TOBR (TrkC-OB-R chimeric receptor) (Homo sapiens, UniProt P48357+Q16288); assay: Luciferase reporter gene assay, TrkC-OB-R chimeric receptor TOBR in neuroblastoma (NBFL) cells; type: cell-based; details: NT-3 at 20 ng/ml for 36 hours
T3 construct: TrkC (amino acids 1 to 458) to the cytoplasmic domain of OB-R (amino acids 865-1165); expressed in transfected cells; host or cells: NBFL neuroblastoma cells

[3] = target: T4, TrkC--OB-R chimera (TOBR) (Homo sapiens, UniProt P48357+Q16288); assay: Immunoprecipitation and western blotting of tyrosine phosphorylation, NT-3-stimulated COS cells expressing TOBR; type: cell-based; details: 50 ng/ml human NT-3 for 15 min
T4 construct: TrkC (amino acids 1 to 458) to the cytoplasmic domain of OB-R (amino acids 865-1165); expressed in transfected cells; host or cells: COS-7
Experimental: The cytoplasmic domain and full-length human OB-R was cloned by PCR using human fetal liver and adipocyte cDNA (Clontech) and cloned into the expression vectors pCMX and pMT21. Chimeric receptors were constructed by fusing the extracellular domain and transmembrane domain of TrkC (amino acids 1 to 458) to the cytoplasmic domain of OB-R (amino acids 865-1165). A triple myc epitope tag was added at the C-terminus of all OB-R constructs (18). Truncation and point mutant constructs were generated by PCR and the sequences of all constructs were verified. Expression constructs were transfected into COS-7 cells using lipofectamine (GIBCO-BRL); 36-48 hours after transfection, cells were starved for either 2 hour,s for chimeric receptors or overnight for full-length receptors prior to stimulation.
Cells were stimulated with 50 ng/ml of human NT-3 for 15 min or 100 ng/ml of human leptin (R&D Systems) for 10 min. Cells were then lysed in a 1% Brij 96 buffer and receptor was immunoprecipitated with anti-myc antibody 9E10 (18) followed by protein G-sepharose (Pharmacia). Unbound lysate was then immunoprecipitated with anti-P-Tyr antibody (UBI, Lake Placid) or agarose-conjugated anti-SHP-2 antibody (Santa Cruz Biotechnology). […] Endogenous STAT3, SHP-2, Jak1 and Jak2 is being detected in all immunoblotting experiments. […]

[4] = target: T5, GST-OB-R-cyto/3myc and GST-SHP1-SH2 (Homo sapiens, UniProt P29350); assay: Competition for binding of GST-OB-R-cyto/3myc and GST-SHP1-SH2; details: 4 μM phosphopeptide, 15 nM cytoplasmic domain, 200 nM GST-SHP1-SH2
T5 construct: Amino acids 2-221 of SHP1 were cloned as a EcoRI/BglII fragment into pGEX-3X; made in house; host or cells: E. coli (OB-R-cyto co-expressed with the ELK tyrosine kinase)
T5 sequence (P29350 2-221): T1 sequence (P29350 2-221)
Experimental: (§2) FIG. 9. Competition for GST-SHP1-SH2 or GST-SHP2-SH2 binding to OB-R-cyto-P by a phosphopeptide containing the sequence surrounding Y986 in OB-R. 200 nM GST-SHP1-SH2 or GST-SHP2-SH2, 15 nM OB-R-cyto-P, with and without 4 μM peptide were incubated together. OB-R-cyto-P was immunoprecipitated with an antibody to the myc epitope tag, and co-precipitating GST-SHP1-SH2 or GST-SHP2-SH2 was visualized with an anti-GST antibody.
as §1, with “After binding either anti-flag mAb, M2, was added (for the phosphopeptide and flag tagged GST-OB-R-cyto) or anti-myc mAb, 9E10, was added (for the myc tagged GST-OB-R-cyto) and the proteins were precipitated with protein G-sepharose.” left out
(§3) In this experiment the SH2 domain, the cytoplasmic domain, and the peptide were mixed and allowed to reach equilibrium. The receptor cytoplasmic domain was precipitated with anti-myc mAb and complexed GST-SHP1-SH2 and GST-SHP2-SH2 were detected by western blot with an anti-GST antibody.

[5] = target: T6, GST-OB-R-cyto/3myc and GST-SHP2-SH2 (Homo sapiens, UniProt Q06124); assay: Competition for binding of GST-OB-R-cyto/3myc and GST-SHP2-SH2; details: 4 μM phosphopeptide, 15 nM cytoplasmic domain, 200 nM GST-SHP2-SH2
T6 construct: The fusion has aa 2-224 of SHP2 cloned as an EcoRI/BamHI fragment into pGEX-3X; made in house; host or cells: E. coli (OB-R-cyto co-expressed with the ELK tyrosine kinase)
T6 sequence (Q06124 2-224): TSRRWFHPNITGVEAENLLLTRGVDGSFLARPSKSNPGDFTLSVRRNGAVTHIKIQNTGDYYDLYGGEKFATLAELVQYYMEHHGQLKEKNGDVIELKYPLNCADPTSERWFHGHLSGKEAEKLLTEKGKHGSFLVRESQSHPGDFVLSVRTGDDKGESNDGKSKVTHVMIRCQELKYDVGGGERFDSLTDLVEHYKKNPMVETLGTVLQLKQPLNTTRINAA
Experimental: as §2
as §1, with “After binding either anti-flag mAb, M2, was added (for the phosphopeptide and flag tagged GST-OB-R-cyto) or anti-myc mAb, 9E10, was added (for the myc tagged GST-OB-R-cyto) and the proteins were precipitated with protein G-sepharose.” left out
as §3

GST-SHP2-SH2 = target: T7, GST-SHP2-SH2 (Homo sapiens, UniProt Q06124); assay: Binding to GST-SHP2-SH2 by immunoprecipitation and western blot; details: 200 nM GST-SHP2-SH2, 15 nM phosphopeptide or cytoplasmic domain fusion, TBST, 4° C. overnight
T7 construct: The fusion has aa 2-224 of SHP2 cloned as an EcoRI/BamHI fragment into pGEX-3X; made in house; host or cells: E. coli
T7 sequence (Q06124 2-224): T6 sequence (Q06124 2-224)
Text: The GST-SHP2-SH2 construct consists of the two SH2 domains of SHP2fused downstream of glutathione-S-transferase (GST) from Schistosoma japonicum. The fusion has aa 2-224 of SHP2 cloned as an EcoRI/BamHI fragment into pGEX-3X and was expressed in E. coli. The SHP2-SH2-Fc construct consists of the same amino acids as the above fusion fused to human IgG-Fc as a BlpI/SrfI fragment in pMT21 and was expressed in COS-7 cells.
as §1

competition of EPOR-cyto-Trx for GST-SHP1-SH2 binding [1] | binding to GST-SHP1-SH2 (GST-SHP1-SH2) | binding to GST-SHP1-SH2 (GST-SHP1-SH2; listed as synthetic phosphopeptide from EPOR) | increase in luciferase activity (TOBRY986F) [fold] | increase in luciferase activity [2] [fold] | competition for binding of GST-OB-R-cyto/3myc and GST-SHP1-SH2 [4] | competition for binding of GST-OB-R-cyto/3myc and GST-SHP2-SH2 [5] | binding to GST-SHP2-SH2 (GST-SHP2-SH2) | Substance | tyrosine phosphorylation of TOBR and downstream signaling molecules [3]
a small amount of competition | bound | Very poor binding | – | – | – | – | – | CPHLKp-YLYLVVSDDYKDDDDK [EPOR phosphopeptide] | –
– | – | – | ~45 | ~8 | – | – | – | NT-3: neurotrophin-3, surrogate ligand used to activate the TrkC-OB-R chimeric receptors | resulted in ligand-dependent tyrosine phosphorylation
a small amount of competition | bound | – | – | – | no competition | no competition | bound specifically | QPFVKp-YATLISNDYKDDDDK [OB-R phosphopeptide] | –
